Legend:
[1] = system: U266-LR7; experiment: MTT cell viability assay, myeloma cell line U266-LR7; assay type: cell-based, human; details: U266-LR7, MTT, 18 hours, doses 0-50 μM; read-out: IC50, cell viability
Description: (§1) In vitro studies were carried out using six different human MM cell lines, U266, RPMI8226, MM1S, MM1R, U266-LR7, and RPMI-LR5. For ex vivo assays, human primary cells from healthy donors and MM patients were used (Table 1). Human MM cell lines U266, RPMI8226, and MM1.S were acquired from ATCC and lines U266-LR7, RPMI-LR5, and MM1.R were kindly provided by Dr. Enrique Ocio (Hospital Universitario de Salamanca, Spain). The primary cells were obtained from bone marrow (BM) aspirates or peripheral blood (PB) samples, and the peripheral blood mononuclear cells (PBMCs) were isolated by Ficoll-Hypaque centrifugation and washed twice in phosphate buffered saline (PBS) containing 1% BSA. Hematopoietic stem cells and B and T lymphocytes were isolated from healthy PB donors by positive immunomagnetic separation using human MACS CD34+, CD19+, and CD3+ microbeads, respectively. MM plasma cells were obtained from the bone marrow (BM) of patients with an infiltration of cells of more than 30% (Table 1). The MM plasma cells were identified using CD138+, and were then distinguished from the other cell populations by flow cytometry using a suitable combination of antibodies: anti-human CD64-FITC, CD34-PE, CD56-APC, CD38-APC-H7, and CD45-Pacific Blue antibodies (BD Biosciences, San Jose, Calif.). All the cell lines were cultured in RPMI-1640 supplemented with 10% fetal bovine serum (FBS) and 1% penicillin/streptomycin, as recommended by the supplier. For human primary cells, the concentration of FBS was up to 20%.
(§2) The MM cell lines and primary cells were exposed to different doses of indazole compounds, and viability was evaluated at 18, 48, and 72 hours. Pretreatments with the ceramide synthesis inhibitor (FB1), pan-caspase (ZVAD-FMK), and CB antagonists (PGN-8, PGN-37, and PGN-70) were performed for 30 minutes, and then the cells were incubated with indazole compound WIN-55 up to 18 hours. Cell viability was determined using the MTT assay Cell Counting Kit-8 (Dojindo, Kumamoto, Japan) according to the manufacturer's instructions.

[2] = system: HL60; experiment: Western blot and immunocytofluorescence in HL60 cells; assay type: cell-based, human
Source text: The detailed methodology for analyzing mitochondrial membrane potential (APm), Western Blot analysis, and immunocytofluorescence analysis has been described elsewhere 29

[3] = system: U266, U266-LR7, RPMI and RPMI-LR5; experiment: Synergy of WIN-55 with anti-myeloma agents, MTT and combination index; assay type: cell-based, human
Description: The evaluation of the synergy of the indazole compound WIN-55 with other anti-myeloma agents, such as dexamethasone and melphalan, was done by evaluating cell viability by means of an MTT assay.
Unless otherwise indicated, an experiment representative of at least three independent experiments is shown. For all the statistical analyses, the data was analyzed by means of Student's T-test with the SPSS software with a statistical significance P≤0.05. The means and standard deviations were also determined. The synergy was calculated using R as described in the Calcusyn software; a combination index (CI)<1 indicates synergy, and >1 indicates antagonism.

[4] = system: U266; experiment: Western blot and immunofluorescence in U266 cells; assay type: cell-based, human; details: U266, 50 μM
Description: The extracts for Western blot were taken after 0, 2, 6, 18, and 24 hours. The cells were lysed according to Gilbert et al., 2002. (J Immunol Methods. 2002, 271:185-201), by adding 2% ASB-14 (Calbiochem, Beeston, United Kingdom) to the isotonic lysis buffer. The protein concentration was determined by Pierce® Microplate BCA Protein Assay kit-Reducing Agent Compatible (Pierce, Rockford, Ill.). The samples were subjected to SDS/PAGE in AnykD precast gels (Bio Rad, Hercules, Calif.) and transferred to PVDF membranes using Trans-Blot® Turbo™ System (Bio-Rad). The membranes were incubated over night at 4° C. with primary antibody in 0.05% Tween 20-Tris buffered saline (TTBS) then with the suitable secondary antibody, and they were subjected to chemiluminescence detection. As a control condition, the cells were treated with DMSO (<0.15%) in RPMI 1640 medium from Gibco (Gaithersburg, Md.).
The antibodies for caspase-2, -8, -9, active caspase-3, -p-Akt (phospho T308), p-Erk (T202+Y204), -p-p38MAPK (phospho T180+Y182), -p-JNK (phospho T183+Y185), -SPT, and the CB1 and CB2 receptors were from Abcam, anti-MCL-1 and -Bcl-xL were from Santa Cruz Biotechnology, anti-PARP was from Cell Signaling Technology, anti-Bax and -Bak were from BD Biosciences. Anti-beta-tubulin was from Sigma-Aldrich. All the horseradish peroxidase (HRP)-conjugated secondary antibodies used were from Jackson ImmunoResearch and produced in a donkey to prevent the possible cross-reactivity when several tests were performed.
The cells treated for 6 hours with indazole compounds were collected and placed on a slide. Immunofluorescence staining was performed as described previously by Vielhaber et al. 2001 (Glycobiology. 2001, 11:451-7) using anti-ceramide as the primary antibody. The ceramide antibody was obtained from Sigma-Aldrich, and the Alexa-488-conjugated secondary antibody was obtained from Abcam. As a control condition, the cells were treated with DMSO (<0.15%) in RPMI 1640 medium from Gibco (Gaithersburg, Md.).

[5] = system: RPMI-LR5; experiment: MTT cell viability assay, myeloma cell line RPMI-LR5; assay type: cell-based, human; details: RPMI-LRS, MTT, 18 hours, doses 0-50 μM; read-out: IC50, cell viability
Description: as §1, §2

[6] = system: hematopoietic progenitor populations; experiment: Effect on normal hematopoiesis in healthy BALB/c mice; assay type: in vivo; details: 5 mg/kg/day for 7 and 28 days
Description: The effect of the cannabinoid on normal hematopoiesis was also tested by means of the treatment of healthy BALB/c mice with WIN-55,212-2 at a dose of 5 mg/kg/day for 7 and 28 days. The bone marrow and the peripheral blood population were analyzed by means of flow cytometry and blood counts.

[7] = system: U266; experiment: Mitochondrial transmembrane potential analysis (TMRE); assay type: cell-based, human; details: U266, 50 μM, from 15 minutes
Description: Cell lines U266 were exposed to 50 μM of WIN-55 for 15, 30, 45, and 60 minutes. The loss of mitochondrial membrane potential (Aym) was calculated using TRME (tetramethylrhodamine-ethyl-ester-perchlorate) according to the manufacturer's instructions and CCCP (2-[2-(3-chlorophenyl)hydrazinylidene] propanedinitrile) was used as a control to induce the loss of Aym.

For `CS(=O)(=O)O.Cc1c(C(=O)c2cccc3ccccc23)c2cccc3c2n1[C@H](CN1CCOCC1)CO3` [WIN-55, (R)-(+)-[2,3-dihydro-5-methyl-3-(4-morpholinomethyl)-pyrrolo[1,2,3]-1,4-benzoxazin-6-yl]-1-naphthalenylmethanone mesylate], the IC50 [1] was 17.2 µM, the “expression of Bax (immunocytofluorescence)” value ([2]; HL60) was “considerable increase in Bax” and the “caspase activation pattern (Western blot)” value ([2]; HL60, 50 μM, 2, 6, 18 and 24 hours) was “activation of various caspases”. For the same compound, the “combination effect (combination index) with dexamethasone” value ([3]; WIN-55 20 μM (U266, U266-LR7, RPMI-LR5) or 10 μM (RPMI) plus DEX) was “synergistic effect”, the “combination effect (combination index) with melphalan” value ([3]; WIN-55 20 μM (U266, U266-LR7, RPMI-LR5) or 10 μM (RPMI) plus MPH) was “synergistic effect” and the “caspase-3 activation (cleaved forms, Western blot)” value [4] was “induction of caspase-3 activation”. The “expression of endoplasmic reticulum stress marker proteins CHOP, ATF-4, p-IRE1, XBP-1s” value [4] was “slight but sustained decrease”, the “expression of ceramides (immunofluorescence)” value ([4]; 6 hours) was “considerable increase in the expression of ceramides” and the “expression of p-Akt (phospho-T308)” value ([4]; early points in time, decrease at later times) was “significant overexpression of p-Akt”. The “expression level of serine-palmitoyltransferase (SPT)” value ([4]; maximum at 18 hours) was “increased”, the IC50 [5] was 16.1 µM and the “viability of hematopoietic progenitor populations” value [6] was “do not affect the viability”. For the same compound, the mitochondrial membrane potential [7] was “early loss of mitochondrial membrane potential”.

Source: patent publication US20200281897A1, “INDAZOLE DERIVATIVES FOR CANCER TREATMENT” (Servicio Andaluz de Salud, priority 2016, published 2020)
